# Source: patent US9884843B2 (Peloton Therapeutics, Inc., priority 2013, dated 2018)
# Entries after “also recorded” stand apart in the source; their conditions may differ. Like-named read-outs stand apart in the source and are kept apart here.
# Assays:
# 786-O-Hif-Luc cells = assay: Luciferase Assay (HIF responsive element reporter); type: cell-based; details: read-out: Mean Luciferease EC50
# Experimental: A pool of infected cells were then selected against 2 μg/mL of puromycin (P8833, Sigma) for 10 days followed by limited dilution to select single clones.
# Each concentration was tested in triplicate. After about 24 hours, luciferase activity was determined using ONE-Glo Luciferase Assay Reagent (E6110, Promega) following the manufacturer's recommended procedure. EC50 were calculated by using Dotmatics software.
# [1] = test system: HIF-2α HIS TAG-PASB Domain; assay: biochemical; type: binding
# Excerpt: (§1) The term “scintillation proximity assay” (SPA) refers to a homogenous assay in which light is emitted when a radiolabeled ligand is brought into close proximity to a radiosensitive bead. The assay typically contains a target protein that contains a tag (e.g., His Tag, Glutathione S-transferase Tag). The tag on the protein is used to bind the target protein to the scintillation bead. Radiolabeled ligand (e.g., labeled with tritium) that binds to the protein is now in close proximity to the bead, and when the raidolabel (e.g., tritium) decays, the high energy particle hits the bead resulting in the emission of light that is detected by a detector, such as photomultiplier tube or CCD camera. When unlabeled ligands or compounds that bind to the protein are used in the assay, they displace the radiolabeled ligand, resulting in loss of signal.
# (§2) The total assay volume was about 100 μL in the following configuration: 2-μL compound in DMSO, 88 μL buffer with protein and probe and 10 μL of SPA beads. […] To each compound, 88 μL of the buffer solution was then added. […] The percent inhibition was determined and IC50 values were calculated using the Dotmatics system based on the following equation: % inhibition=[(high control−sample)/(high control−low control)]×100.
# [2] = test system: VEGF in culture medium of 786-O cells; assay: VEGF ELISA Assay; type: cell-based
# Experimental: Four hours later, serial dilutions of 10× compound stocks were made in growth medium from 500×DMSO stocks, and 20 μL of those 10× stocks were added to each well to make final concentrations as follows (μM): 20, 6.7, 2.2, 0.74, 0.25, 0.082, 0.027, 0.009, 0.003, 0.001, 0. Each concentration had duplicated wells. About twenty hours later, the growth medium was removed by suction and each well was supplied with 180 μL of growth medium. About 20 μl freshly-made 10× compound stocks were added to each well. […] The EC50 was calculated by GraphPad Prism using the dose-response-inhibition (four parameter) equation. The cell seeded plate was then subjected to CellTiter-Glo luminescence cell viability assay (Promega) by adding about 50 μL of Celltiter Glo reagent into each well and shaking the plate for 8 minutes at 550 rpm (Thermomixer R, Eppendorf). The luminescence signals were read in a plate reader (3 second delay, 0.5 second/well integration time, Synergy 2 multi Detection Microplate reader) immediately.
# [3] = target: HIF-2α HIS TAG-PASB Domain (Homo sapiens, UniProt Q99814); assay: biochemical; type: binding; details: displacement of Compound 120 probe; mean; read-out: Mean SPA IC50
# Chain of HIF-2α HIS TAG-PASB Domain (Homo sapiens, UniProt Q99814) (Q99814 whole entry, looked up, the tested form may be a part): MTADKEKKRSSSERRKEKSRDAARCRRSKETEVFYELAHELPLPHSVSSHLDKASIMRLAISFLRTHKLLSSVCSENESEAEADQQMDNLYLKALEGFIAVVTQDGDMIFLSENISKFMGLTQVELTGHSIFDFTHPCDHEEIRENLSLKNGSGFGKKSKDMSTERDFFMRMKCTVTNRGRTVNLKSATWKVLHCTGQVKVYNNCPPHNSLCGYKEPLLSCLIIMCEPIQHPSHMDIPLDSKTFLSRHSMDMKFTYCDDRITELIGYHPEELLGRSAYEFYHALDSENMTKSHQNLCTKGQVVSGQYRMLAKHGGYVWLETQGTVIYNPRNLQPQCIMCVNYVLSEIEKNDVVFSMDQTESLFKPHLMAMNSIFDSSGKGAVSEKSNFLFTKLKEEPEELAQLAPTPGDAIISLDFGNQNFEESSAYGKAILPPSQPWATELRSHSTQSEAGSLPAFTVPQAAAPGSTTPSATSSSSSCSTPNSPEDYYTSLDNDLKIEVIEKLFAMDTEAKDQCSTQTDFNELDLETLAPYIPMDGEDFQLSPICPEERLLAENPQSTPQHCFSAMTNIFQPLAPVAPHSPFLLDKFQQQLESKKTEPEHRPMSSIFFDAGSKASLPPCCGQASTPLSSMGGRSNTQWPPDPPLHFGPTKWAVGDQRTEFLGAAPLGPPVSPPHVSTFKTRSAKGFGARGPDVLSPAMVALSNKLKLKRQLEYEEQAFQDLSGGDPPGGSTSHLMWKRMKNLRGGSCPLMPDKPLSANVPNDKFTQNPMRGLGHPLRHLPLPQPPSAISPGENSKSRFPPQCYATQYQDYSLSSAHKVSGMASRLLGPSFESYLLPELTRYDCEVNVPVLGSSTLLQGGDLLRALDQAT
# Excerpt: as §1, §2
# [4] = test system: HIF-2α and HIF-2α-regulated genes in 786-O xenograft; assay: In vivo PK/PD study: tumor mRNA levels by qRT-PCR; design: species or system SCID/Biege mice; details: 786-O xenograft mice, 10 mg/kg oral gavage three times at 12 hour intervals, 12 hours post last dose
# Experimental: (§3) About 5×10^6 renal cell carcinoma 786-O tumor cells (ATCC® CRL-1932™, VHL and HIF-1α null cell line) in PBS and Matrigel (1:1 in volume) were injected subcutaneously in the right flanks of SCID/Biege mice at 6-7 weeks of age for xenograft development. When the xenografts reached about 450 mm^3 in size, the tumor-bearing mice were randomly divided into two groups (4 mice in each group). […] Animals were sacrificed at 12 hours post last dose. Tumors and plasma were collected from each animal. Total RNA was extracted from the tumors. The mRNA levels of HIF-2α and its respective target genes were determined by qRT-PCR.
# human VEGFA = assay: In vivo PK/PD study: plasma human VEGFA by ELISA; design: species or system SCID/Biege mice; details: 786-O tumor-bearing mice, 10 mg/kg oral gavage three times at 12 hour intervals
# Experimental: as §3
# The plasma level of human VEGFA was determined by ELISA assay.
# [5] = test system: renal cell carcinoma 786-O xenograft; assay: In vivo efficacy study, 786-O xenograft; design: species or system SCID/Biege mice
# [6] = displacement of Compound 120 probe, mean, read-out: Mean SPA IC50
# [7] = 786-O-Hif-Luc cells, about 24 hours
# [8] = 24 h, 786-O-Hif-Luc cells, about 24 hours
smiles,measurement,setting,value
"O=S1(=O)c2ccc(Oc3cncc(Cl)c3)c(C(F)F)c2C(O)C1(F)F (stereo not drawn) [Compound 35, 5-((5-Chloropyridin-3-yl)oxy)-4-(difluoromethyl)-2,2-difluoro-3-hydroxy-2,3-dihydrobenzo[b]thiophene 1,1-dioxide]",EC50,786-O-Hif-Luc cells; 24 h,150 nM
same,IC50,[1]; [6],230 nM
"O=S1(=O)c2ccc(Oc3cc(F)cc(Cl)c3)c(Br)c2C(O)C1(F)F (stereo not drawn) [Compound 9, 4-Bromo-5-(3-chloro-5-fluorophenoxy)-2,2-difluoro-3-hydroxy-2,3-dihydrobenzo[b]thiophene 1,1-dioxide]",EC50,"[2]; Homo sapiens, 786-0",65 nM
same,EC50,786-O-Hif-Luc cells; [7],50 nM
same,IC50,[3],2 nM
"N#Cc1cc(F)cc(Oc2ccc3c(c2C(F)F)[C@@H](O)C(F)(F)S3(=O)=O)c1 [Compound 3, (R)-3-((4-(Difluoromethyl)-2,2-difluoro-3-hydroxy-1,1-dioxido-2,3-dihydrobenzo[b]thiophen-5-yl)oxy)-5-fluorobenzonitrile]",Tumor mRNA for HIF-1α and HIF-1α specific target genes (PGK1 and PDK1),[4],no significant effect; also recorded: no significant changes
same,Tumor mRNA for HIF-2α and HIF-2α specific target genes (PAI-1 and CCND1),[4],reduced; also recorded: significant reduction
same,EC50,786-O-Hif-Luc cells; [7],7 nM
same,Plasma level of human VEGFA,human VEGFA,reduced; also recorded: undetectable level
same,Effect on tumor size,"[5]; 10 mg/kg b.i.d. oral gavage for 21 days, versus vehicle",tumor size reduction and regression; also recorded: statistically significant reduction of tumor size
same,Tumor size Mean ± SEM,"[5]; 10 mg/kg b.i.d. oral gavage, after 21 days of dosing",57 ± 5.6 mm^3
"Cc1c(Oc2cc(F)cc(Cl)c2)ccc2c1C(O)C(F)(F)S2(=O)=O (stereo not drawn) [Compound 13, 5-(3-Chloro-5-fluorophenoxy)-2,2-difluoro-3-hydroxy-4-methyl-2,3-dihydrobenzo[b]thiophene 1,1-dioxide]",EC50,786-O-Hif-Luc cells; 24 h,450 nM
same,IC50,[1]; [6],15 nM
"CC1(C)C(O)c2c(ccc(Oc3cc(F)cc(Cl)c3)c2Br)S1(=O)=O (stereo not drawn) [Compound 60, 4-Bromo-5-(3-chloro-5-fluoro-phenoxy)-2,2-dimethyl-1,1-dioxo-3H-benzothiophen-3-ol]",IC50,[1]; [6],21900 nM
"N=S1(=O)c2ccc(Oc3cc(F)cc(F)c3)c(C(F)F)c2C(O)C1(F)F (stereo not drawn) [Compound 53, 4-(difluoromethyl)-5-(3,5-difluorophenoxy)-2,2-difluoro-3-hydroxy-1-imino-2,3-dihydro-1H-1λ^4-benzo[b]thiophene 1-oxide]",EC50,[2],67 nM
same,EC50,786-O-Hif-Luc cells; [7],39 nM
"N#Cc1c(Oc2cc(F)cc(Cl)c2)ccc2c1C(O)C(F)(F)S2(=O)=O (stereo not drawn) [Compound 10, 5-(3-chloro-5-fluorophenoxy)-2,2-difluoro-3-hydroxy-2,3-dihydrobenzo[b]thiophene-4-carbonitrile 1,1-dioxide]",EC50,786-O-Hif-Luc cells; [7],4170 nM
same,IC50,[1]; [6],45 nM
"N#Cc1c(Oc2cc(F)cc(Cl)c2)ccc2c1C(O)CS2(=O)=O (stereo not drawn) [Compound 7, 5-(3-chloro-5-fluorophenoxy)-3-hydroxy-2,3-dihydrobenzo[b]thiophene-4-carbonitrile 1,1-dioxide]",EC50,"[2]; Homo sapiens, 786-0",330 nM
same,EC50,786-O-Hif-Luc cells; [7],450 nM
"N#Cc1cncc(Oc2ccc3c(c2C(F)F)C(O)C(F)(F)S3(=O)=O)c1 (stereo not drawn) [Compound 37, 5-((4-(Difluoromethyl)-2,2-difluoro-3-hydroxy-1,1-dioxido-2,3-dihydrobenzo[b]thiophen-5-yl)oxy)nicotinonitrile]",EC50,786-O-Hif-Luc cells; [7],170 nM
same,IC50,[1]; [6],120 nM
"O=S1(=O)C[C@@H](O)c2c1ccc(Oc1cc(F)cc(Cl)c1)c2Br [(3S)-4-bromo-5-(3-chloro-5-fluoro-phenoxy)-1,1-dioxo-2,3-dihydrobenzothiophen-3-ol]",IC50,"[1]; unnumbered compounds listed by structure and name, read-out: IC50 value in SPA",> 100000 nM
"N#Cc1c(Oc2cccc(F)c2)ccc2c1[C@@H](O)CS2(=O)=O [Compound 76, (R)-5-(3-fluorophenoxy)-3-hydroxy-2,3-dihydrobenzo[b]thiophene-4-carbonitrile 1,1-dioxide]",EC50,786-O-Hif-Luc cells; [8],490 nM
same,IC50,[3],750 nM
"C[C@@]1(O)c2c(ccc(Oc3cc(F)cc(C#N)c3)c2C#N)S(=O)(=O)C1(F)F [Compound 112, (R)-5-(3-cyano-5-fluorophenoxy)-2,2-difluoro-3-hydroxy-3-methyl-2,3-dihydrobenzo[b]thiophene-4-carbonitrile 1,1-dioxide]",EC50,"[2]; Homo sapiens, 786-0",31 nM
same,EC50,786-O-Hif-Luc cells; [8],18 nM
"[2H][C@@]1(O)c2c(ccc(Oc3cc(F)cc(C#N)c3)c2C(F)F)S(=O)(=O)C1(F)F [Compound 43, (R)-3-((4-(Difluoromethyl)-2,2-difluoro-3-hydroxy-1,1-dioxido-2,3-dihydrobenzo[b]thiophen-5-yl-3-d)oxy)-5-fluorobenzonitrile]",EC50,786-O-Hif-Luc cells; [7],6 nM
"N#Cc1cc(F)cc(Oc2ccc3c(c2C(F)F)C(=O)C(F)(F)S3(=O)=O)c1 [Compound 39, 3-((4-(Difluoromethyl)-2,2-difluoro-1,1-dioxido-3-oxo-2,3-dihydrobenzo[b]thiophen-5-yl)oxy)-5-fluorobenzonitrile]",EC50,786-O-Hif-Luc cells; [7],2790 nM
same,IC50,[1]; [6],2420 nM
"N#Cc1cncc(Oc2ccc3c(c2Br)[C@@H](O)C(F)(F)S3(=O)=O)c1 [Compound 78, (R)-5-((4-Bromo-2,2-difluoro-3-hydroxy-1,1-dioxido-2,3-dihydrobenzo[b]thiophen-5-yl)oxy)nicotinonitrile]",EC50,"[2]; Homo sapiens, 786-0",330 nM
same,EC50,786-O-Hif-Luc cells; [8],95 nM
same,IC50,[3],120 nM
"O=S1(=O)c2ccc(Oc3cc(F)cc(Cl)c3)cc2C(O)C1(F)F (stereo not drawn) [Compound 16, 5-(3-Chloro-5-fluorophenoxy)-2,2-difluoro-3-hydroxy-2,3-dihydrobenzo[b]thiophene 1,1-dioxide]",IC50,[1]; [6],1880 nM
